According to US11542240B2, “STK19 inhibitors for treatment of cancer” (TRUSTEES OF BOSTON UNIVERSITY, priority 2018, dated 2023):

Experiments:
STK19 = STK19 (Homo sapiens (Human), UniProt P49842); experiment: STK19 kinase inhibitory activity, ADP-Glo kinase assay with NRAS substrate; assay type: biochemical
WM2032 cells = assay type: cell-based, human; details: WM2032, G9a inhibition by A-366
Text: (§1) In addition, the inventors investigated the growth inhibitory effects of IV in melanoma cells with different NRAS and BRAF status, including A375 and UACC62 (NRASWT, BRAFV600E), and SK-MEL-2 and WM2032 (NRASQ61R, BRAFWT).
(§2) To further confirm the pharmacological effects of IV derive from STK19 inhibition and not G9a inhibition, the inventors investigated the role of G9a in NRAS signaling activation. G9a was silenced by G9a-specific shRNA or inhibited by a specific inhibitor, A-366, in SK-MEL-2 and WM2032 melanoma cells. […] In summary, ZT-12-037-01 (IV) is a specific STK19-targeted inhibitor to block oncogenic NRAS-driven melanocyte malignant transformation and melanoma growth.

SK-MEL-2 cells = assay type: cell-based, human; details: SK-MEL-2, G9a inhibition by A-366
Text: as §1, §2

Sequence of STK19 (P49842 other isoform, or with tags, fused parts or gaps): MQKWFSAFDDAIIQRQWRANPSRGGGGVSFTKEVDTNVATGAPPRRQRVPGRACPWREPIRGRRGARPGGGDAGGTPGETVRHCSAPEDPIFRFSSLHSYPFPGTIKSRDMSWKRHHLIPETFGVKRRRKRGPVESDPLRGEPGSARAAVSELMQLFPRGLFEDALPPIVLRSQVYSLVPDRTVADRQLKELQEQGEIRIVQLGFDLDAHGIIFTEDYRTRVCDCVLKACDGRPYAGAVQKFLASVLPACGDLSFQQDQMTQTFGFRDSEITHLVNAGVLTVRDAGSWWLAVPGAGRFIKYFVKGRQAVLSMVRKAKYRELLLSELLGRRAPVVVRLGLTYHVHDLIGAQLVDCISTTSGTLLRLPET

inhibition at 10 µM (STK19) [%]	inhibitory potential toward STK19 (STK19; in vitro kinase assay)	SMILES	H3K9 methylation levels (WM2032 cells)	H3K9 methylation levels (SK-MEL-2 cells)
59		COc1cc2nc(N3CCOCC3)nc(NC3CCN(C(C)C)CC3)c2cc1OC [Formula XXI]		
	little inhibitory potential	COc1cc2c(cc1OCCCN1CCCC1)N=C(N)C21CCC1 [Formula A-366, reference compound]	markedly repressed	markedly repressed
